Results taken from patent US20050271643A1, “Bacterial strains, compositions including same and probiotic use thereof” (priority 2003, published 2005).

Test system: B. licheniformis PA
Test: Antibiogram by disc diffusion method
Format: cell-based, Bacillus licheniformis
Details: strain B. licheniformis PA

| Compound | Sensitivity or resistance of the strain to the antibiotic (in words) |
| --- | --- |
| CC1(C)S[C@@H]2[C@H](NC(=O)Cc3ccccc3)C(=O)N2[C@H]1C(=O)O [Benzylpenicillin] | resistant |
| Cc1onc(-c2ccccc2)c1C(=O)N[C@@H]1C(=O)N2[C@@H]1SC(C)(C)[C@@H]2C(=O)O [Oxacillin] | resistant |
| Polymyxin E | resistant |
| C[C@H]1[C@H](NC(=O)/C(=N\OC(C)(C)C(=O)O)c2csc(N)n2)C(=O)N1S(=O)(=O)O [Aztreonam] | resistant |
| CC(C)(O/N=C(\C(=O)N[C@@H]1C(=O)N2C(C(=O)[O-])=C(C[n+]3ccccc3)CS[C@H]12)c1csc(N)n1)C(=O)O [Ceftazidim] | resistant |
